Assay results as given in PMC4339220 (2014).

What was measured:
[1] = tested on: TGGAGA cognate hairpin (biotinylated) (DNA, hairpin) CCTTGGAGAGTTTTCTCTCCAAGG; assay: SPR, global kinetic fit; settings: 50 mM NaCl; 10 mM HEPES, 1 mM EDTA, pH 7.4, 0.05% P20, 25 °C
[2] = tested on: TGGAGA cognate hairpin (DNA, hairpin) CCTTGGAGAGTTTTCTCTCCAAGG; assay: UV melting; settings: 50 mM NaCl; 10 mM HEPES, 1 mM EDTA, pH 7.4; 3 µM hairpin, 3 µM compound

KD [1] [nM] | ΔTm [2] [°C] | Structure (SMILES)
12.1 ± 0.4 |  | CN(C)CCCNC(=O)CCNC(=O)c1cc(NC(=O)c2cc(NC(=O)c3cc(NC(=O)c4cc(NC(=O)CCCNC(=O)c5nc(NC(=O)CCNC(=O)c6nc(NC(=O)c7nccn7C)cn6C)cn5C)cn4C)cn3C)cn2C)cn1C
2.6 ± 0.2 | 8.0 | CN(CCCN)CCCNC(=O)CCNC(=O)c1cc(NC(=O)c2cc(NC(=O)CCNC(=O)c3cc(NC(=O)CCCNC(=O)c4nc(NC(=O)c5cc(NC(=O)c6nc(NC(=O)c7nccn7C)cn6C)cn5C)cn4C)cn3C)cn2C)cn1C
18.6 ± 0.8 | 3.6 | CN(CCCN)CCCNC(=O)CCNC(=O)c1cc(NC(=O)c2cc(NC(=O)CCNC(=O)c3cc(NC(=O)CCCNC(=O)c4nc(NC(=O)CCNC(=O)c5nc(NC(=O)c6nccn6C)cn5C)cn4C)cn3C)cn2C)cn1C
2.0 ± 0.2 |  | CN(CCCN)CCCNC(=O)CCNC(=O)c1cc(NC(=O)c2cc(NC(=O)c3cc(NC(=O)c4cc(NC(=O)CCCNC(=O)c5nc(NC(=O)c6cc(NC(=O)c7nc(NC(=O)c8nccn8C)cn7C)cn6C)cn5C)cn4C)cn3C)cn2C)cn1C
26.3 ± 2.2 |  | CN(CCCN)CCCNC(=O)CCNC(=O)c1cc(NC(=O)CCNC(=O)c2cc(NC(=O)c3cc(NC(=O)CCCNC(=O)c4nc(NC(=O)CCNC(=O)c5nc(NC(=O)c6nccn6C)cn5C)cn4C)cn3C)cn2C)cn1C
36.4 ± 0.4 |  | CN(C)CCCNC(=O)CCNC(=O)c1cc(NC(=O)CCNC(=O)c2cc(NC(=O)c3cc(NC(=O)CCCNC(=O)c4nc(NC(=O)c5cc(NC(=O)c6nc(NC(=O)c7nccn7C)cn6C)cn5C)cn4C)cn3C)cn2C)cn1C
2.5 ± 0.4 | 7.8 | CN(C)CCCNC(=O)CCNC(=O)c1cc(NC(=O)c2cc(NC(=O)c3cc(NC(=O)c4cc(NC(=O)CCCNC(=O)c5nc(NC(=O)c6cc(NC(=O)c7nc(NC(=O)c8nccn8C)cn7C)cn6C)cn5C)cn4C)cn3C)cn2C)cn1C
